Assays:
[1] = test system: Acidithiobacillus spp. enrichments from sewer crown biofilm extract; assay: metal inhibition in liquid media (pH monitoring and cell counts of sewer enrichments); format: cell-based; details: for cell density where pH dropped: average, aliquots when pH reached 2
Description: FIGS. 4A-4E are graphs showing pH of enrichments including different levels of copper, cobalt, and silver, alone and in combinations. FIG. 4A: Cu^2+, FIG. 4B: Ag+, FIG. 4C: Cu/Ag in combination at a ratio 2:1, FIG. 4D: Co^2+, and FIG. 4E: Cu/Co in combination at a ratio 1:1. Enrichments were inoculated with 150 μL of biofilm extract from a corroded site and dominated by Acidithiobacillus spp. (>95% relative abundance).
FIGS. 5A-5E are graphs showing cell densities (cells/mL) observed in sewer sourced enrichment cultures including copper, cobalt and silver, alone and in combinations. FIG. 5A: Cu^2+, FIG. 5B: Ag^+, FIG. 5C: Cu^2+/Ag^+ in combination at a ratio 2:1, FIG. 5D: Co^2+, and FIG. 5E: Cu^2+/Co^2+ in combination at a ratio 1:1. Light grey bars indicate enrichment cultures where pH dropped below 2. Dark grey bars indicate batches where pH approached neutrality. (n=3).
The pH was monitored and used as an indicator for significant acidophilic SOB activity (FIGS. 4A-4E). Thiobacillus media, without any metal addition, was used as control for comparative analysis. […] Above 40 mg Cu/L, no pH depression was observed; in contrast, pH increased and plateaued at values ranging between 6.5 and 6.7. […] Where only cobalt and silver were used, all challenges indicated some evidence of acidophilic activity.
Combinations of metals were also studied, including Cu/Ag and Cu/Co at mass ratios of 2:1 and 1:1, respectively. […] Thresholds for pH were also observed above 10 mg Cu/L and 10 mg Co/L, where copper and cobalt were combined. This challenge was monitored over 30 days, indicating significant acidophilic activity after […] of incubation.
All metal species used for the challenges were based on nitrate salts. Therefore, inhibition in the presence of counter ions, was also monitored. Challenges with increasing NO3 concentrations (up to 200 mg NO3/L) where prepared with NaNO3. All challenges indicated acidophilic activity and no lag effect was ever observed.
Aliquots for cell quantification and genetic analyses were extracted from each experiment when pH reached 2. If no pH drop was observed, aliquots were extracted after 30 days of incubation. FIGS. 5A-5E illustrate the observed cell densities for all tests.
The inhibitory effects and minimum inhibitory concentration of Cu and Co were further assessed on mixed acidophilic cultures in a liquid format. Silver (Ag) was also included based on its literature history as broad-spectrum inhibitory metal. As for the solid inhibition assays, the results presented in this study support the hypothesis that different metal may ions have markedly different inhibitory potential against Acidithiobacillus spp. extracted from sewer crowns. […] In thiosulfate-based media, stationary phase for Acidithiobacillus cultures was reached 8 days after inoculation. The relative duration of experiments highlighted metal-induced lag phases from stable inhibitory concentrations. MICs clearly emerged for Cu alone (50 mg Cu/L), and in mixtures of Cu/Ag (50 mg/L and 25 mg/L) and Cu/Co (15 mg/L and 15 mg/L). […] No inhibitory synergism was observed when mixing Cu and Ag at a 2:1 ratio, when compared to any individual metal alone. However, synergistic inhibition was observed when Cu and Co were present at a 1:1 ratio. […] The literature is tenuous on this topic.

[2] = test system: Acidithiobacillus spp.; assay: 16S rRNA gene analysis of metal-exposed enrichment cultures; format: cell-based; details: below 40 mg Cu/L
Source text: Cu and Cu/Ag mixtures were chosen to investigate the microbial communities under conditions where a pH threshold was observed. 16S rRNA gene analysis of 17 samples generated over 4 million sequences, classified in 611 operational taxonomic units (OTUs). After rarefaction analysis, the median Good's coverage was >99.9%, indicating enough sequencing data to confidently describe the diversity within these samples. Abundant OTUs consistently included 5 bacteria genera (FIGS. 6A-6B). Samples with metal concentration below the acidophilic inhibition threshold (40 mg Cu/L) indicated bacterial communities were dominated by Acidithiobacillus spp. […] When copper and silver were both present, Acidithiobacillus represented the dominant genus below the concentrations of 40 mg Cu/L and 20 mg Ag/L. The same genus represented less than 1% in batches above these concentrations. Following the same pattern as in the presence of Cu alone, the enrichments were also dominated by Burkholderia and Ralstonia spp. with significant presence of Sphingomonas spp., Leifsonia spp., Methylobacterium spp., and Microbacteriaceae spp. (when Cu ≥40 mg/L).

[3] = test system: sulfur oxidizing bacteria isolated from a corroding sewer (Acidithiobacillus spp.); assay: modified Kirby-Bauer diffusion susceptibility test, metal-laden PAC on thiosulfate agar (solid media); format: cell-based, Acidithiobacillus thiooxidans; details: average
Source text: Bacterial cell abundance on the different areas of the plate surfaces were quantified using the epifluorescence microscopy methods known in the art. Areas selected for representative analysis were located in the center of each inhibition zone and the dispersed colonies area, and 10 mm into the bacterial monolayer.
Acidithiobacillus spp. response to metal mixtures is limited, however, the synergy of binary and ternary metal solutions have been described. […] The classic Kirby-Bauer antibiotic sensitivity test was adopted to assess diffusion inhibition of Acidithiobacillus thiooxidans growing on agar surfaces, in a longitudinal format.

## [Ag] [Ag, silver]
[1]; 30 days, Ag alone (highest tested) or in Cu/Ag
  MIC, Ag: > 75 mg/L
[1]; Ag alone (highest tested) or Cu/Ag 2:1
  threshold Ag concentration for pH depression: ≥ 75 mg Ag/L
[1]
  cell density where pH dropped: 1.73×10^8 cells/mL

## [Cu+2] [Cu, copper]
[1]; 30 days, Cu alone or in Cu/Ag 2:1, Cu/Co 1:1
  MIC, Cu: 50 mg/L
[1]; aliquots after 30 days
  cell density where pH did not drop: 1.11×10^9 cells/mL
[1]
  cell density where pH dropped: 1.06×10^8 cells/mL
[1]; no significant pH drop after 30 days, Cu alone
  minimum inhibitory concentration (MIC) for acidophilic growth: 50 mg Cu/L
[1]; up to 40 mg Cu/L
  endpoint pH of challenges at or below threshold: < 2 pH
[2]
  Acidithiobacillus relative abundance below threshold: > 99%
[3]; agar, 10 days, pH below 3, Cu alone or co-loaded with Co on PAC
  metal normalized inhibition length (Cu): 2.36 cm·(mg Cu/L)^−1

## [Zn] [Zn, zinc]
[3]
  metal normalized inhibition length (Zn): 0.14 cm·(mg Zn/L)^−1

## [Ni] [Ni, nickel]
[3]
  metal normalized inhibition length (Ni): 0.28 cm·(mg Ni/L)^−1

## O=[N+]([O-])[O-].[Na+] [NaNO3, reference compound]
[1]; counter ion challenge
  highest NO3 concentration still showing acidophilic activity, no lag: ≥ 200 mg NO3/L

## [Co+2] [Co, cobalt]
[1]; 30 days, Co alone or in Cu/Co
  MIC, Co: > 50 mg/L
[1]; Co alone (highest tested) or Cu/Co 1:1
  threshold Co concentration for pH depression: ≥ 50 mg Co/L
[1]
  cell density where pH dropped: 3.81×10^8 cells/mL
[3]; Co alone or co-loaded with Cu on PAC
  metal normalized inhibition length (Co): 1.23 cm·(mg Co/L)^−1

## [Cd] [Cd, cadmium]
[3]
  metal normalized inhibition length (Cd): 0.74 cm·(mg Cd/L)^−1

— patent publication US12528741B2, “Compositions for controlling microbially induced concrete corrosion” (The Regents of the University of Colorado, priority 2020, dated 2026)
